Consider six compounds from ChEMBL document CHEMBL3045509, “Oxadiazolo pyrrolidine carboxamides as enoyl-ACP reductase inhibitors: design, synthesis and antitubercular activity screening” (2013).

Values after ≈ are worked out from the molar mass of the structure shown.

The experiment deals with Mycobacterium tuberculosis. As to the kind of experiment: Antitubercular activity against Mycobacterium tuberculosis H37Rv MTCC 300 after 7 days by Alamar blue assay. In kind it is functional. The note with it: H37Rv MTCC 300, 168 h.

The term MIC denotes the lowest concentration that inhibits growth of the organism. `O=C(Nc1nnc(-c2ccccc2)o1)C1CC(=O)N(c2ccccc2)C1` (stereo unspecified) returned an MIC of 12.5 µg/mL (≈ 35.9 µM).
In turn, `NNC(=O)c1ccncc1` [ISONIAZID] came in with an MIC of 0.25 µg/mL (≈ 1.82 µM).
Then `Cc1ccc(-c2nnc(NC(=O)C3CC(=O)N(c4ccccc4)C3)o2)cc1` (stereo unspecified), with 50 µg/mL (≈ 138 µM); and `O=C(Nc1nnc(-c2ccc([N+](=O)[O-])cc2)o1)C1CC(=O)N(c2ccccc2)C1` (stereo unspecified), with 25 µg/mL (≈ 63.6 µM); and `O=C(Nc1nnc(-c2ccc(Cl)cc2)o1)C1CC(=O)N(c2ccccc2)C1` (stereo unspecified), with 25 µg/mL (≈ 65.3 µM).
Then `COc1ccc(-c2nnc(NC(=O)C3CC(=O)N(c4ccccc4)C3)o2)cc1` (stereo unspecified), with 3.12 µg/mL (≈ 8.26 µM).
